This is an account of results in patent publication US12544375B2, “Small molecule therapeutic for parkinson's disease paired with a biomarker of therapeutic activity” (The Board of Trustees of the Leland Stanford Junior …, priority 2019, dated 2026).

This data set relates to LRRK2^G2019S, PINK1 null and SNCA^A53T flies. The data set can be described thus: Fly lifespan (survival curves). In kind it is in vivo. The procedure: FIG. 4A-FIG. 4I. Miro1 Reducer Rescues PD-Relevant Phenotypes in Flies. For all panels, when Miro1 Reducer was not added, the same volume of the solvent, DMSO, was supplied in fly food. Drug administration (2.5 μM) was started from day 2. (FIG. 4A-FIG. 4C) Survival curves of LRRK2^G2019S (FIG. 4A), PINK1^B9 (imprecise excision, null) and PINK1^RV (the precise excision control for PINK1^B9) (FIG. 4B), and SNCA^A53T flies (FIG. 4C). n=58-150. (FIG. 4D) Dopaminergic (DA) neurons in the PPM1/2 clusters of 22-day old flies were immunostained with anti-TH. (FIG. 4D-FIG. 4F) Quantification of the DA neuron number in the PPL1 or PPM1/2 cluster (total number divided by 2 for each brain). (FIG. 4D) LRRK2^G2019S. n=6-8 brains. (FIG. 4E) PINK1^B9 (“−”) and PINK1^RV (“+”). n=9-16. (FIG. 4F) SNCA^A53T. n=9-11. (FIG. 4G-FIG. 4I) Climbing ability (Average PI±S.E.M) of adult flies. n=24-47 flies.
In order to cross-validate the neuroprotective effect of Miro1 Reducer in vivo, we fed the compound to three well-established fly PD models: (1) Actin-GAL4>UAS-LRRK2^G2019S (ubiquitous expression of human pathogenic LRRK2); (2) PINK1 null; and (3) Elav-GAL4>UAS-SNCA^A53T (neuronal expression of human pathogenic alpha-synuclein). […]
Fly Behavior and Biochemical Assays. […] Flies were transferred into fresh vials and the numbers of dead and escaped flies were scored 3 times a week. […]

As for `O=C(Nc1ccc(Nc2cc(-n3ccnc3)ncn2)cc1)Nc1cccc(F)c1` [Miro1 Reducer], the “long-term toxicity (lifespan)” value (2.5 μM in food from adulthood, wild-type or PD flies) was “no long-term toxicity”. Moreover, the “lifespan of SNCA^A53T flies” value (2.5 μM in food, Log-Rank P=0.00019 0 μM v.s. 2.5 μM) is given as “extended the shortened lifespan”.
